Data as given in patent publication US5665346A, “Human interleukin-8 analogs” (dated 1997).
Like-named read-outs stand apart in the source and are kept apart here.

Assays:
[1] = tested on: human neutrophils; format: cell-based, human neutrophils from donor blood buffy coats; settings: read-out: Elastase ED50; n = 3
Source text: (§1) In a valuable aspect of the present invention, there are provided IL-8 analogs that are antagonists of IL-8 activity. Antagonists of IL-8 activity are characterized by the ability to reduce one or more of the measurable consequences of IL-8-mediated neutrophil stimulation. Biological assays are known which may be used to test for IL-8 activities or an ability to block or inhibit IL-8. The in vitro assays require human neutrophils which may be isolated from donor blood by known procedures such as that described by Peveri, et al (1988) J. Exp. Med. 167: 1547-1559. The assays include measurement of elastase release, cytosolic free calcium changes, and chemotaxis and may be performed according to methods described by Schroder, et al (1987) J. Immunol. 139: 3474-3483; and, Peveri, et al (1988) [supra].
(§2) For the biological assays referred to in the following examples, human neutrophils isolated from buffy coats of donor blood were placed in a final suspension of 10^8 cells/ml kept at 0.15mM MaCl, 0.05 mM CaCl2 at 10° C. until use. Competition binding studies were performed according to the following protocol. IL-8 was iodinated with Enzymobead reagent (Bio-Rad) as instructed by the supplier. Briefly, 1 nmol of IL-8 was mixed with 50 µl of rehydrated Enzymobead reagent, 50 µl of 0.2M potassium phosphate, pH 7.2, 2 mCl or Na^125 I, and […] of 2% D(+)-glucose and incubated for 30 min at 21° C. […] The ^125 I-IL-8 preparations were each analyzed for purity (SDS-polyacrylamide gel electrophoresis) and binding capacity (self-displacement analysis using freshly isolated human neutrophils) prior to use. Neutrophils ([…]) in 120 µl of RPMI 1640 medium containing 20 mM Hepes, pH 7.3, and 10 mg/ml BSA (binding medium) are incubated on ice (0°-4° C.) for 90 min with 1 nM ^125 I-IL-8 in the presence or absence of cold competitor (10^-11 to 10^-5). Cells are separated from unbound radioactivity by centrifugation for 1 min at 8000× g through 350 µl of phosphate-buffered saline (PBS) containing 60 mg/ml BSA (wash medium) in a Hettich Microliter centrifuge model 2020. The supernatant is aspirated, and the bottom of the tubes containing the cell sediment is sliced off and counted in a MR 480 automated µ counter (kontron). The Kd values were determined by calculating nonlinear least squares fits of the measured data, based on a single binding site model, and determining the Kd using a LIGAND program as described by Moser, et al (1991) J. Biol. Chem. 266: 10666-10671.
(§3) Cytokine analogs formed from the monomers described in Table 1 were compared for biological activity according to in vitro assays described herein. […] The binding dissociation constants (Kd values) were calculated from the competitive binding data shown in FIGS. 5 and 6 as described above.
(§4) Shown are determinations at the indicated concentrations of IL-8 1-72: .oval-solid., 1-72; .tangle-solidup., 3-72; .increment., 4-72; .diamond., 5-72; .box-solid., 6-72; .quadrature., 7-72; and .smallcircle., 77-residue IL-8. Unidirectional error bars indicate the standard deviations. Data are representative of three assays using different neutrophil preparations.
FIG. 3 is a graph showing neutrophil elastase release activity of COOH-terminal deletion IL-8 analogs. Shown are determinations at the indicated concentrations of IL-8 1-72: .oval-solid., 1-72; .smallcircle., 1-69; .tangle-solidup., 1-66; .increment., 1-63; .box-solid., 1-60; .quadrature., 1-58; .diamond., 1-54; and X, 1-51. Unidirectional error bars indicate the standard deviations. Data are representative of three assays using different neutrophil preparations.

[2] = tested on: human neutrophils; format: cell-based, human neutrophils from donor blood buffy coats; settings: read-out: Chemotaxis ED50; n = 3
Source text: as §1, §2, §3
as §4, with “FIG. 2 is a graph showing neutrophil chemotaxis activity of NH2 -terminal deletion IL-8 analogs. The chemotaxis index (stimulated migration/control random migration) was determined” for “Shown are determinations”
FIG. 4 is a graph showing neutrophil chemotaxis activity of the COOH-terminal deletion IL-8 analogs. The chemotactic index (stimulated migrations/control random migration) was determined at the indicated concentrations of IL-8 1-72: .oval-solid., 1-72; .smallcircle., 1-69; .tangle-solidup., 1-66; .increment., 1-63; .box-solid., 1-60; .quadrature., 1-58; .diamond., 1-54; and X, 1-51. Unidirectional error bars indicate the standard deviations. Data are representative of three assays using different neutrophil preparations.

[3] = molecular target: human neutrophils (receptor sites for IL-8 on neutrophils) (human); experiment: competition with 125I-IL-8 on human neutrophils
[4] = molecular target: human neutrophils (receptor sites for IL-8 on neutrophils) (human); experiment: competition with 125I-IL-8 1-72 on human neutrophils, LIGAND fit
[5] = tested on: human neutrophils; format: cell-based, human neutrophils from donor blood buffy coats; settings: read-out: Binding Kd
Protocol: For the biological assays referred to in the following examples, human neutrophils isolated from buffy coats of donor blood were placed in a final suspension of 10^8 cells/ml kept at 0.15mM MaCl, 0.05 mM CaCl2 at 10° C. until use. Competition binding studies were performed according to the following protocol. […] C. […] Cells are separated from unbound radioactivity by centrifugation for 1 min at 8000× g through 350 µl of phosphate-buffered saline (PBS) containing 60 mg/ml BSA (wash medium) in a Hettich Microliter centrifuge model 2020. The supernatant is aspirated, and the bottom of the tubes containing the cell sediment is sliced off and counted in a MR 480 automated µ counter (kontron). The Kd values were determined by calculating nonlinear least squares fits of the measured data, based on a single binding site model, and determining the Kd using a LIGAND program as described by Moser, et al (1991) J. Biol. Chem. 266: 10666-10671.
as §3

[6] = tested on: human neutrophils; format: cell-based, human neutrophils from donor blood buffy coats
Protocol: For the biological assays referred to in the following examples, human neutrophils isolated from buffy coats of donor blood were placed in a final suspension of 10^8 cells/ml kept at 0.15mM MaCl, 0.05 mM CaCl2 at 10° C. until use. Competition binding studies were performed according to the following protocol. […] C. […] The supernatant is aspirated, and the bottom of the tubes containing the cell sediment is sliced off and counted in a MR 480 automated µ counter (kontron).
(§5) The effect of amino acid replacement on the activity of interleukin-8 analogues was also explored, using compounds prepared by t-boc-based solid phase peptide synthesis.

[7] = tested on: human neutrophils; format: cell-based, human neutrophils from donor blood buffy coats; settings: read-out: IC50 (µM)
Protocol: Analog cytokines having residues 5-72; 6-72; and 7-72; respectively, were synthesized according to the method described herein. […] The assay was performed as previously described and elastase release is expressed in relative fluorescence units (1 unit=1 pMol 7-amino-4-methylcoumarine produced min). Mean values were determined from duplicate determinations form one out of three similar experiments performed with different neutrophil preparations.
as §5

Molecule: IL-8 residues 1-60
- EC50 [1]: 220 nM
- EC50 [2]: 3.9 nM

Molecule: IL-8 (6-72) (ligand)
- Kd [3]: 50 nM
- Kd [4]: 31 nM

Molecule: IL-8, ELNle (7-72) (ligand)
- Kd [3]: 170 nM

Molecule: IL-8 (5-72), SEQ ID NO: 9, Leu-Arg-Cys-Gln-Cys...
- Kd [5]: 0.76 nM
- EC50 [1]: 1000 nM
- EC50 [2]: 0.48 nM
- Kd [6]: 0.8 nM

Molecule: IL-8, ELQ (7-72) (ligand)
- Kd [3]: 650 nM

Molecule: SEQ ID NO: 10, Ile-Arg-Cys-Gln-Cys... [IL-8, IR (7-72)]
- Kd [6]: 16 nM
- IC50 [7]: 0.3 µM

Molecule: IL-8 with 5 additional NH2-terminal residues [77-residue IL-8]
- Kd [5]: 0.35 nM
- EC50 [1]: 25 nM
- EC50 [2]: 0.69 nM

Molecule: SEQ ID NO: 3, Glu-Leu-Gln-Cys-Gln-Cys... [IL-8, ELQ (7-72)]
- Kd [6]: 650 nM
- IC50 [7]: 1.1 µM

Molecule: IL-8, AAR (7-72) (ligand)
- Kd [3]: 7.9 nM

Molecule: IL-8, ELOrn (7-72) (ligand)
- Kd [3]: 400 nM

Molecule: 77-residue IL-8 (ligand)
- Kd [4]: 0.35 nM

Molecule: IL-8 (4-72) (ligand)
- Kd [3]: 0.22 nM
- Kd [4]: 0.22 nM

Molecule: SEQ ID NO: 11, Gln-Arg-Cys-Gln-Cys... [IL-8, QR (7-72)]
- Kd [6]: 34 nM
- IC50 [7]: 2.1 µM

Molecule: IL-8 residues 3-72
- EC50 [1]: 2.5 nM
- EC50 [2]: 0.21 nM

Molecule: IL-8, ELL (7-72) (ligand)
- Kd [3]: 1290 nM

Molecule: IL-8 (5-72) (ligand)
- Kd [3]: 0.8 nM
- Kd [4]: 0.76 nM

Molecule: IL-8, ELK (7-72) (ligand)
- Kd [3]: 220 nM

Molecule: IL-8 residues 1-51
- Kd [5]: 17 nM
- EC50 [1]: 680 nM
- EC50 [2]: 7.1 nM

Molecule: IL-8 residues 1-54
- Kd [5]: 10 nM
- EC50 [1]: 580 nM
- EC50 [2]: 6.7 nM

Molecule: IL-8 (7-72) (ligand)
- Kd [3]: > 10000 nM

Molecule: IL-8 residues 1-66
- EC50 [1]: 13 nM
- EC50 [2]: 0.32 nM

Molecule: SEQ ID NO: 7, Glu-Leu-Nle-Cys-Gln-Cys... (Nle = norleucine) [IL-8, ELNle (7-72)]
- Kd [6]: 170 nM
- IC50 [7]: 1 µM

Molecule: SEQ ID NO: 5, Glu-Leu-Lys-Cys-Gln-Cys... [IL-8, ELK (7-72)]
- Kd [6]: 220 nM
- IC50 [7]: 1.8 µM

Molecule: IL-8 residues 1-58
- EC50 [1]: 680 nM
- EC50 [2]: 8.9 nM

Molecule: IL-8, QR (7-72) (ligand)
- Kd [3]: 34 nM

Molecule: IL-8 residues 1-63
- EC50 [1]: 150 nM
- EC50 [2]: 1.7 nM

Molecule: SEQ ID NO: 4, Glu-Leu-Leu-Cys-Gln-Cys... [IL-8, ELL (7-72)]
- Kd [6]: 1290 nM
- IC50 [7]: 0.7 µM

Molecule: IL-8 (4-72), SEQ ID NO: 2, Glu-Leu-Arg-Cys-Gln-Cys...
- Kd [5]: 0.22 nM
- EC50 [1]: 4.5 nM
- EC50 [2]: 0.25 nM
- Kd [6]: 0.22 nM

Molecule: IL-8 (1-72), SEQ ID NO: 1, Ser-Ala-Lys-Glu-Leu-Arg-Cys-Gln-Cys... [reference compound]
- EC50 [1]: 13 nM
- EC50 [2]: 0.36 nM

Molecule: SEQ ID NO: 8, Ala-Ala-Arg-Cys-Gln-Cys... [IL-8, AAR (7-72)]
- Kd [6]: 7.9 nM
- IC50 [7]: 0.3 µM

Molecule: IL-8 (6-72), SEQ ID NO: 12, Arg-Cys-Gln-Cys...
- Kd [5]: 31 nM
- Kd [6]: 50 nM
- IC50 [7]: 0.3 µM

Molecule: IL-8 (7-72), SEQ ID NO: 13, Cys-Gln-Cys...
- Kd [6]: > 10000 nM

Molecule: IL-8, IR (7-72) (ligand)
- Kd [3]: 16 nM

Molecule: IL-8 residues 1-69
- EC50 [1]: 7.5 nM
- EC50 [2]: 0.14 nM

B1: IL-8 1-54 (ligand)
chain: SAKELRCQCIKTYSKPFHPKFIKELRVIESGPHCANTEIIVKLSDGRELCLDPK
- Kd [4]: 10 nM

B2: IL-8 1-51 (ligand)
chain: SAKELRCQCIKTYSKPFHPKFIKELRVIESGPHCANTEIIVKLSDGRELCL
- Kd [4]: 17 nM
